Laboratory results reported in PMC12040169 (PLOS Biology, 2025).

Assay: in vitro
Conditions: human, hela cells, % viability

SMILES | viability at 28.5 h, 10 µM
COC(=O)c1cccc(CN2CCC3(CC2)NC(=O)Cc2ccccc23)c1 [CBK039807] | 101%
CCN1CCC2(CC1)NC(=O)Cc1ccccc12 [CBK039810] | 96%
N#CCCCN1CCCC2(C1)NCCc1c2[nH]c2cc(F)ccc12 (stereo not drawn) [CBK039826] | 117%
COc1ccc2c(c1)CC(=O)NC21CCN(Cc2c(F)cccc2F)CC1 [CBK039835] | 93.8%
CCN1CCC2(CC1)NC(=O)Cc1cc(OC)c(OC)c(OC)c12 [CBK039868] | 97.6%
O=C1Cc2c(ccc3ccccc23)C2(CCN(CCCC(F)(F)F)CC2)N1 [CBK039912] | 89.6%
Cc1ccc2[nH]c3c(c2c1)CCOC31CCN(Cc2ccccc2-c2ccccc2)CC1 [CBK039915] | 89.1%
COc1cc2c(cc1OC)C1(CCN(CCc3c[nH]c4ccccc34)CC1)NC(=O)C2 [CBK039992] | 99.3%
COc1cc2c(c(OC)c1OC)C1(CCN(Cc3ccc(S(C)(=O)=O)cc3)CC1)NC(=O)C2 [CBK040014] | 108%
N#CCCN1CCCC2(C1)NCCc1c2[nH]c2ccccc12 (stereo not drawn) [CBK040031] | 97%
N#CCCCN1CCC2(CC1)OCCc1c2[nH]c2ccc(Br)cc12 [CBK040105] | 88.4%
COc1cccc2c3c([nH]c12)C1(CCCN(C/C=C\c2ccccc2)C1)NCC3 (stereo not drawn) [CBK040138] | 98.3%
Fc1ccc2[nH]c3c(c2c1)CCOC31CCN(C/C=C\c2ccccc2)CC1 [CBK040141] | 70.1%
c1csc(CCN2CCC3(C2)NCCc2c3[nH]c3ccccc23)c1 (stereo not drawn) [CBK040196] | 111%
c1ccc(COCCCN2CCC3(CC2)OCCc2c3[nH]c3ccccc23)cc1 [CBK040208] | 84.8%
Cc1ccc2c(c1)C1(CCN(CC3CC3)CC1)NC(=O)C2 [CBK040217] | 94.8%
COc1cccc(CN2CCC3(CC2)NC(=O)Cc2ccc(C)cc23)c1 [CBK040219] | 88.5%

SMILES | viability at 28.5 h, 10 µM
Cc1ccc2[nH]c3c(c2c1)CCOC31CCN(CCOc2cccc3c2CCCC3=O)CC1 [CBK040230] | 83.3%
COc1ccccc1C(=O)CN1CCC2(CC1)OCCc1c2[nH]c2ccc(F)cc12 [CBK040238] | 97.6%
COc1ccccc1CCCN1CCC2(C1)NCCc1c2[nH]c2ccccc12 (stereo not drawn) [CBK040257] | 91%
Cc1cccc2c3c([nH]c12)C1(CCCN(C/C=C\c2ccccc2)C1)N(C=O)CC3 (stereo not drawn) [CBK040265] | 92.4%
O=CN1CCc2c([nH]c3cc(F)ccc23)C12CCN(CCc1cccs1)CC2 [CBK040312] | 81.2%
O=CN1CCc2c([nH]c3ccccc23)C12CCN(CC1CC1)CC2 [CBK040315] | 91.8%
COc1ccc2[nH]c3c(c2c1)CCN(C=O)C31CCN(Cc2cccc(Cl)c2)C1 (stereo not drawn) [CBK040376] | 97.3%
CC(=O)N1CCc2c([nH]c3c(C)cccc23)C12CCN(C/C=C\c1ccccc1)C2 (stereo not drawn) [CBK040414] | 90.8%
COc1cccc(CN2CCC3(CC2)c2[nH]c4ccc(OCc5ccccc5)cc4c2CCN3C=O)c1 [CBK040462] | 101%
c1ccc(COc2ccc3[nH]c4c(c3c2)CCNC42CCCN(CC3CC3)C2)cc1 (stereo not drawn) [CBK040619] | 100%
Brc1ccc2[nH]c3c(c2c1)CCOC31CCN(CC2CCCCO2)CC1 (stereo not drawn) [CBK040648] | 87.8%
Cn1c2c(c3ccccc31)CCOC21CCN(CC2CCCCO2)CC1 (stereo not drawn) [CBK040649] | 87.9%
C[C@@H]1CNCCN1c1nccnc1OCCOc1cccnc1OCCN [CBK040757T] | 88.8%
O=S(=O)(NCCc1cccs1)c1cc2c(N3CCNCC3)nccc2s1 [CBK041299C] | 104%
COc1ccc([C@@]23CC[C@H](NC(=O)Nc4ccc(F)c(F)c4)C[C@@H]2N(Cc2ccccc2)CC3)cc1OC [CBK041333T] | 94.5%
CCn1cc(C(=O)O)c(=O)c2cnc(N3CCNCC3)nc21 [CBK041585] | 90.8%
